Measurements from the NIST ThermoML archive (doi:10.1021/je900227j).
Numbers after ± are expanded uncertainties.

Conditions: 101.33 kPa, Liquid; for mass density: Pycnometric method; for speed of sound: Pulse-echo method

## CCCBr [1-bromopropane]
243.15 K
  mass density: 1431.07 ± 0.54 kg/m3
243.76 K
  speed of sound: 1144.8 ± 2.4 m/s
253.15 K
  mass density: 1415.43 ± 0.51 kg/m3
263.15 K
  mass density: 1400.28 ± 0.49 kg/m3
263.38 K
  speed of sound: 1075 ± 2.2 m/s
273.15 K
  mass density: 1385.33 ± 0.47 kg/m3
273.31 K
  speed of sound: 1040.1 ± 2.1 m/s
283.15 K
  mass density: 1369.4 ± 0.45 kg/m3
283.26 K
  speed of sound: 1005.5 ± 2.1 m/s
293.15 K
  mass density: 1352.89 ± 0.43 kg/m3
293.22 K
  speed of sound: 971.22 ± 2 m/s
298.15 K
  mass density: 1344.48 ± 0.43 kg/m3
298.21 K
  speed of sound: 954.05 ± 2 m/s
323.21 K
  speed of sound: 870.16 ± 1.8 m/s
343.21 K
  speed of sound: 804.19 ± 1.7 m/s
363.23 K
  speed of sound: 739.38 ± 1.5 m/s
383.47 K
  speed of sound: 674.94 ± 1.4 m/s

## CCCCCCCCBr [1-bromooctane]
243.61 K
  speed of sound: 1336.3 ± 2.9 m/s
253.15 K
  mass density: 1151.11 ± 0.55 kg/m3
263.15 K
  mass density: 1140.86 ± 0.52 kg/m3
273.15 K
  mass density: 1131.22 ± 0.5 kg/m3
273.28 K
  speed of sound: 1235.4 ± 2.7 m/s
283.15 K
  mass density: 1121.21 ± 0.47 kg/m3
293.15 K
  mass density: 1111.01 ± 0.45 kg/m3
303.15 K
  mass density: 1100.89 ± 0.46 kg/m3
303.16 K
  speed of sound: 1137.2 ± 2.5 m/s
323.02 K
  speed of sound: 1073.8 ± 2.4 m/s
323.15 K
  mass density: 1080.6 ± 0.49 kg/m3
343.15 K
  mass density: 1060.45 ± 0.51 kg/m3
352.91 K
  speed of sound: 981.92 ± 2.2 m/s
363.15 K
  mass density: 1039.47 ± 0.55 kg/m3
382.88 K
  speed of sound: 892.87 ± 2 m/s
383.15 K
  mass density: 1018.75 ± 0.58 kg/m3
393.15 K
  mass density: 1008.38 ± 0.6 kg/m3
402.55 K
  speed of sound: 835.51 ± 1.9 m/s
423.04 K
  speed of sound: 778.72 ± 1.8 m/s

## CCCCCBr [1-bromopentane]
243.73 K
  speed of sound: 1240 ± 2.8 m/s
253.15 K
  mass density: 1260.65 ± 0.79 kg/m3
263.15 K
  mass density: 1249.88 ± 0.76 kg/m3
273.32 K
  speed of sound: 1137.5 ± 2.6 m/s
283.15 K
  mass density: 1226.85 ± 0.69 kg/m3
293.15 K
  mass density: 1214.88 ± 0.66 kg/m3
303.15 K
  mass density: 1202.6 ± 0.67 kg/m3
303.22 K
  speed of sound: 1037.1 ± 2.4 m/s
323.15 K
  mass density: 1177.13 ± 0.69 kg/m3
323.17 K
  speed of sound: 972.37 ± 2.3 m/s
343.15 K
  mass density: 1150.97 ± 0.72 kg/m3
353.18 K
  speed of sound: 877.57 ± 2.1 m/s
363.15 K
  mass density: 1124.69 ± 0.74 kg/m3
383.15 K
  mass density: 1097.39 ± 0.76 kg/m3
383.23 K
  speed of sound: 785.49 ± 2 m/s
393.15 K
  mass density: 1083.35 ± 0.78 kg/m3
403.28 K
  speed of sound: 725.54 ± 1.9 m/s
423.48 K
  speed of sound: 666.58 ± 1.8 m/s

## CCCCCCCCCCCBr [1-bromoundecane]
273.15 K
  mass density: 1067.26 ± 1.3 kg/m3
273.42 K
  speed of sound: 1307 ± 3.4 m/s
283.2 K
  mass density: 1058.34 ± 1.3 kg/m3
293.2 K
  mass density: 1049.49 ± 1.2 kg/m3
298.15 K
  mass density: 1045.03 ± 1.2 kg/m3
303.22 K
  speed of sound: 1209 ± 3.3 m/s
323.19 K
  speed of sound: 1145.6 ± 3.2 m/s
323.2 K
  mass density: 1023.21 ± 1.2 kg/m3
343.2 K
  mass density: 1005.75 ± 1.2 kg/m3
353.14 K
  speed of sound: 1054.4 ± 3 m/s
363.2 K
  mass density: 987.93 ± 1.3 kg/m3
383.14 K
  speed of sound: 966.59 ± 2.9 m/s
383.2 K
  mass density: 969.56 ± 1.3 kg/m3
403.13 K
  speed of sound: 909.71 ± 2.8 m/s
403.25 K
  mass density: 951.27 ± 1.3 kg/m3
423.13 K
  speed of sound: 854.45 ± 2.8 m/s

## CCCCCCCCCCBr [1-bromodecane]
253.4 K
  mass density: 1105.66 ± 1.6 kg/m3
263.3 K
  mass density: 1096.34 ± 1.5 kg/m3
273.25 K
  mass density: 1087.32 ± 1.5 kg/m3
283.2 K
  mass density: 1078.06 ± 1.4 kg/m3
293.15 K
  mass density: 1069.01 ± 1.4 kg/m3
298.15 K
  mass density: 1064.47 ± 1.4 kg/m3
323.15 K
  mass density: 1041.72 ± 1.4 kg/m3
323.2 K
  speed of sound: 1123.8 ± 3.2 m/s
343.15 K
  mass density: 1023.01 ± 1.4 kg/m3
353.19 K
  speed of sound: 1032.2 ± 3.1 m/s
363.15 K
  mass density: 1004.33 ± 1.4 kg/m3
383.15 K
  mass density: 985.41 ± 1.4 kg/m3
383.22 K
  speed of sound: 944.49 ± 2.9 m/s
403.23 K
  speed of sound: 888.22 ± 2.9 m/s
403.25 K
  mass density: 966.27 ± 1.4 kg/m3
423.27 K
  speed of sound: 833.21 ± 2.8 m/s
423.3 K
  mass density: 946.49 ± 1.4 kg/m3

## CCCCBr [1-bromobutane]
243.38 K
  speed of sound: 1195.3 ± 2.5 m/s
253.15 K
  mass density: 1326.49 ± 0.5 kg/m3
263.15 K
  mass density: 1313.8 ± 0.48 kg/m3
273.15 K
  mass density: 1300.5 ± 0.46 kg/m3
273.26 K
  speed of sound: 1091 ± 2.3 m/s
283.15 K
  mass density: 1286.37 ± 0.43 kg/m3
293.15 K
  mass density: 1272.7 ± 0.41 kg/m3
298.15 K
  mass density: 1265.66 ± 0.42 kg/m3
303.15 K
  mass density: 1258.55 ± 0.42 kg/m3
323.15 K
  mass density: 1229.53 ± 0.45 kg/m3
323.22 K
  speed of sound: 925.99 ± 1.9 m/s
343.22 K
  speed of sound: 861.16 ± 1.8 m/s
363.23 K
  speed of sound: 797.6 ± 1.7 m/s
383.31 K
  speed of sound: 735.21 ± 1.6 m/s

## CCCCCCBr [1-bromohexane]
243.6 K
  speed of sound: 1273.8 ± 2.7 m/s
253.15 K
  mass density: 1217.95 ± 0.52 kg/m3
263.15 K
  mass density: 1206.62 ± 0.5 kg/m3
273.15 K
  mass density: 1195.28 ± 0.47 kg/m3
273.31 K
  speed of sound: 1172.8 ± 2.5 m/s
283.15 K
  mass density: 1183.82 ± 0.45 kg/m3
298.15 K
  mass density: 1166.83 ± 0.43 kg/m3
303.2 K
  speed of sound: 1073.6 ± 2.3 m/s
323.15 K
  mass density: 1137.27 ± 0.46 kg/m3
323.2 K
  speed of sound: 1009.3 ± 2.2 m/s
343.15 K
  mass density: 1113.66 ± 0.49 kg/m3
353.16 K
  speed of sound: 916.03 ± 2 m/s
383.15 K
  mass density: 1066.11 ± 0.55 kg/m3
383.19 K
  speed of sound: 826.35 ± 1.8 m/s
403.15 K
  mass density: 1040.91 ± 0.58 kg/m3
403.25 K
  speed of sound: 767.47 ± 1.7 m/s
423.23 K
  speed of sound: 709.98 ± 1.6 m/s

## CCCCCCCCCCCCBr [1-bromododecane]
273.15 K
  mass density: 1056.54 ± 0.45 kg/m3
273.32 K
  speed of sound: 1323.5 ± 2.8 m/s
283.15 K
  mass density: 1048.47 ± 0.43 kg/m3
293.15 K
  mass density: 1039.81 ± 0.41 kg/m3
303.15 K
  mass density: 1031.27 ± 0.42 kg/m3
303.21 K
  speed of sound: 1224.8 ± 2.6 m/s
323.15 K
  mass density: 1013.99 ± 0.45 kg/m3
323.18 K
  speed of sound: 1161.2 ± 2.5 m/s
343.15 K
  mass density: 996.24 ± 0.48 kg/m3
353.15 K
  speed of sound: 1069.7 ± 2.4 m/s
363.15 K
  mass density: 979.02 ± 0.51 kg/m3
383.15 K
  mass density: 961.54 ± 0.55 kg/m3
383.17 K
  speed of sound: 982.95 ± 2.2 m/s
393.15 K
  mass density: 952.43 ± 0.57 kg/m3
403.19 K
  speed of sound: 926.37 ± 2.1 m/s
413.15 K
  mass density: 933.49 ± 0.6 kg/m3
423.14 K
  speed of sound: 871.74 ± 2 m/s
423.15 K
  mass density: 923.65 ± 0.62 kg/m3

## CCCCCCCBr [1-bromoheptane]
243.74 K
  speed of sound: 1308.3 ± 2.8 m/s
253.15 K
  mass density: 1180.21 ± 0.53 kg/m3
263.15 K
  mass density: 1169.57 ± 0.51 kg/m3
273.15 K
  mass density: 1159.15 ± 0.48 kg/m3
273.33 K
  speed of sound: 1207.2 ± 2.6 m/s
283.15 K
  mass density: 1148.71 ± 0.46 kg/m3
298.15 K
  mass density: 1132.91 ± 0.44 kg/m3
303.19 K
  speed of sound: 1108.7 ± 2.4 m/s
323.14 K
  speed of sound: 1045.1 ± 2.3 m/s
323.15 K
  mass density: 1105.97 ± 0.47 kg/m3
343.15 K
  mass density: 1084.54 ± 0.5 kg/m3
353.14 K
  speed of sound: 952.86 ± 2.1 m/s
363.15 K
  mass density: 1061.75 ± 0.53 kg/m3
383.15 K
  mass density: 1038.55 ± 0.56 kg/m3
383.17 K
  speed of sound: 863.47 ± 1.9 m/s
393.15 K
  mass density: 1026.63 ± 0.58 kg/m3
423.22 K
  speed of sound: 748.09 ± 1.7 m/s

## CCCCCCCCCBr [1-bromononane]
253.15 K
  mass density: 1124.52 ± 1.5 kg/m3
253.46 K
  speed of sound: 1329.9 ± 3.5 m/s
263.2 K
  mass density: 1115.2 ± 1.4 kg/m3
273.15 K
  mass density: 1105.5 ± 1.4 kg/m3
273.29 K
  speed of sound: 1262.7 ± 3.3 m/s
283.15 K
  mass density: 1096.09 ± 1.4 kg/m3
293.15 K
  mass density: 1086.58 ± 1.3 kg/m3
298.15 K
  mass density: 1082.2 ± 1.3 kg/m3
303.15 K
  speed of sound: 1165.1 ± 3.2 m/s
323.14 K
  speed of sound: 1101.1 ± 3.1 m/s
323.15 K
  mass density: 1058.34 ± 1.3 kg/m3
343.15 K
  mass density: 1038.92 ± 1.3 kg/m3
353.1 K
  speed of sound: 1009.9 ± 3 m/s
363.15 K
  mass density: 1019.42 ± 1.3 kg/m3
383.05 K
  speed of sound: 921.46 ± 2.8 m/s
383.15 K
  mass density: 999.36 ± 1.3 kg/m3
393.15 K
  mass density: 989.17 ± 1.3 kg/m3
402.98 K
  speed of sound: 864.42 ± 2.8 m/s
413.15 K
  mass density: 968.48 ± 1.3 kg/m3
422.72 K
  speed of sound: 808.79 ± 2.7 m/s
